Target: T1, mGluR5 receptor (Sus scrofa, UniProt I3LUI7)
T1 construct: 450 μg of protein from brain homogenate are incubated with 5 nM^3[H]-MPEP; from tissue; host or cells: pig brain hemispheres without medulla, cerebellum and pons
Experiment: Affinity for the mGluR5 receptor: displacement of 3[H]-MPEP binding in pig brain homogenate
Settings: 10 μM compound, 5 nM 3[H]-MPEP
Method: II. Method for Determining the Affinity for the mGluR5 Receptor
In each case 450 μg of protein from brain homogenate are incubated with 5 nM^3[H]-MPEP (Tocris, order No. R1212) (MPEP=2-methyl-6-[…]) and the compounds to be investigated (10 μM in the assay) in buffer (as above) in 250 μl incubation mixtures in 96-well microtiter plates at room temperature for 60 min.
The filter plates were then dried at 55° C. for 60 min.

T1 sequence (I3LUI7 19-1212): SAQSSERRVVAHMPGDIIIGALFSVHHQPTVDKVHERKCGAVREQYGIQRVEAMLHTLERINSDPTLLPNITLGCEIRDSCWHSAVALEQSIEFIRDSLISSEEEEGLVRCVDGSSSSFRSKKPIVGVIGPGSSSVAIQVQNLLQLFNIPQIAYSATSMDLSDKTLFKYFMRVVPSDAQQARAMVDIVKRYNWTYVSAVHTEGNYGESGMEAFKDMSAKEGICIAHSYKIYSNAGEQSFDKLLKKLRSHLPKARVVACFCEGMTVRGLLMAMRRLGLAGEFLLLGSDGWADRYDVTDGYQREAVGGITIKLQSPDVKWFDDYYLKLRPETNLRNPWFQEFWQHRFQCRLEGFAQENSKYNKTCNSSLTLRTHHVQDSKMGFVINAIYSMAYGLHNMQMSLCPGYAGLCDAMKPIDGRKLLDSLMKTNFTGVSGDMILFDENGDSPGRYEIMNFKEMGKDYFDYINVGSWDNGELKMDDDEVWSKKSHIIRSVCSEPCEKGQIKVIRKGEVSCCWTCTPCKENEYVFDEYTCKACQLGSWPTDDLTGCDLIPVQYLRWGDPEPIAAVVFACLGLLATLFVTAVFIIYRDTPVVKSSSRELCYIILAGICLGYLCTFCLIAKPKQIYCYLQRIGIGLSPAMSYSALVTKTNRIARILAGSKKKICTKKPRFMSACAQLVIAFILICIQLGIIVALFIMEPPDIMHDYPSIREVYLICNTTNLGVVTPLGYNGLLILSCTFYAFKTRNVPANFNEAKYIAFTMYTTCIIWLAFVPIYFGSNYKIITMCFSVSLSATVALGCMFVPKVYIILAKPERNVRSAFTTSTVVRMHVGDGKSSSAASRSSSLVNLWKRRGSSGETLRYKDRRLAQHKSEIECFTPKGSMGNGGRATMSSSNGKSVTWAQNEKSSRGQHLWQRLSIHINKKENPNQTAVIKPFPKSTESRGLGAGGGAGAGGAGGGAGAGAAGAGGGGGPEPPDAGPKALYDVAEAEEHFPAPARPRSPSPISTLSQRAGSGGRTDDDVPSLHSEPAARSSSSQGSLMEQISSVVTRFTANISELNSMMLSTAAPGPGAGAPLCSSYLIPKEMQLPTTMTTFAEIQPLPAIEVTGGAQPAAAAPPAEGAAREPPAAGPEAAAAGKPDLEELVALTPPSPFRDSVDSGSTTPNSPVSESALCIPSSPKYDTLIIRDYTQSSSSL

SMILES	inhibition at 10 µM	mGluR5 receptor inhibition of the 3[H]-MPEP binding in % (10 μM)
CCCCC(CC)C(=O)Nc1noc2ccccc12 (stereo not drawn) [Example 85, N-benzo[d]isoxazol-3-yl-2-ethylhexanamide]	63.2%	–
CCC(C)C(=O)Nc1noc2ccccc12 (stereo not drawn) [Example 86, N-benzo[d]isoxazol-3-yl-2-methylbutyramide]	39.6%	–
O=C(Nc1noc2ccccc12)c1c(F)cccc1F [Example 87, N-benzo[d]isoxazol-3-yl-2,6-difluorobenzamide]	37%	–
O=C(Nc1noc2ccccc12)c1ccc(C(F)(F)F)c(F)c1 [Example 88, N-benzo[d]isoxazol-3-yl-3-fluoro-4-trifluoromethylbenzamide]	30%	–
O=C(Nc1noc2ccccc12)c1c(F)ccc(F)c1F [Example 89, N-benzo[d]isoxazol-3-yl-2,3,6-trifluorobenzamide]	51.1%	–
O=C(Nc1noc2ccccc12)c1cccnc1 [Example 90, N-benzo[d]isoxazol-3-ylnicotinamide]	50.3%	–
Cc1cc(C(=O)Nc2noc3ccccc23)no1 [Example 91, 5-methylisoxazole-3-benzo[d]isoxazol-3-ylcarboxamide]	–	35.00%
O=C(Nc1noc2ccccc12)c1csc2ccccc12 [Example 92, benzo[b]thiophene-3-benzo[d]isoxazol-3-ylcarboxamide]	–	55.98%
O=C(Nc1noc2c(F)cccc12)c1ccccc1Cl [Example 93, 2-chloro-N-(7-fluorobenzo[d]isoxazol-3-yl)benzamide]	35.4%	–
CC(C)(C)c1ccc(C(=O)Nc2noc3c(F)cccc23)cc1 [Example 94, 4-tert-butyl-N-(7-fluorobenzo[d]isoxazol-3-yl)benzamide]	30.8%	–
O=C(Nc1noc2c(F)cccc12)c1ccccc1 [Example 95, N-(7-fluorobenzo[d]isoxazol-3-yl)benzamide]	45.8%	–
O=C(Nc1noc2c(F)cccc12)c1ccc(F)cc1 [Example 96, 4-fluoro-N-(7-fluorobenzo[d]isoxazol-3-yl)benzamide]	30.5%	–
COc1ccccc1C(=O)Nc1noc2c(F)cccc12 [Example 98, N-(7-fluorobenzo[d]isoxazol-3-yl)-2-methoxybenzamide]	32%	–
Cc1ccccc1C(=O)Nc1noc2c(F)cccc12 [Example 99, N-(7-fluorobenzo[d]isoxazol-3-yl)-2-methylbenzamide]	43%	–
O=C(Nc1noc2cc(F)ccc12)c1cc(F)cc(F)c1 [Example 100, 3,5-difluoro-N-(6-fluorobenzo[d]isoxazol-3-yl)benzamide]	33.3%	–
O=C(Nc1noc2cc(F)ccc12)c1cccc2ccccc12 [Example 101, naphthalene-1-(6-fluorobenzo[d]isoxazol-3-yl)carboxamide]	–	48.99%
O=C(Nc1noc2cc(F)ccc12)C12CC3CC(CC(C3)C1)C2 [Example 102, adamantane-1-(6-fluorobenzo[d]isoxazol-3-yl)carboxamide]	–	52.11%
O=C(Nc1noc2ccc(F)cc12)c1ccccc1Br [Example 103, 2-bromo-N-(5-fluorobenzo[d]isoxazol-3-yl)benzamide]	41.2%	–
CC(C)(C)c1ccc(C(=O)Nc2noc3ccc(F)cc23)cc1 [Example 104, 4-tert-butyl-N-(5-fluorobenzo[d]isoxazol-3-yl)benzamide]	44.6%	–
O=C(Nc1noc2ccc(F)cc12)c1ccc(F)cc1F [Example 105, 2,4-difluoro-N-(5-fluorobenzo[d]isoxazol-3-yl)benzamide]	53.8%	–
O=C(Nc1noc2ccc(F)cc12)c1ccc2ccccc2c1 [Example 106, naphthalene-2-(5-fluorobenzo[d]isoxazol-3-yl)carboxamide]	–	33.72%
CCCc1ccc(C(=O)Nc2noc3ccc(F)cc23)cc1 [Example 107, N-(5-fluorobenzo[d]isoxazol-3-yl)-4-propylbenzamide]	42.1%	–
O=C(Nc1noc2cc(Cl)ccc12)c1ccccc1Cl [Example 108, 2-chloro-N-(6-chlorobenzo[d]isoxazol-3-yl)benzamide]	34.7%	–
CC(C)(C)c1ccc(C(=O)Nc2noc3cc(Cl)ccc23)cc1 [Example 109, 4-tert-butyl-N-(6-chlorobenzo[d]isoxazol-3-yl)benzamide]	35.2%	–
O=C(Nc1noc2cc(Cl)ccc12)c1ccc(F)cc1C(F)(F)F [Example 110, N-(6-chlorobenzo[d]isoxazol-3-yl)-4-fluoro-2-trifluoromethylbenzamide]	36%	–
O=C(Nc1noc2cc(Cl)ccc12)c1cc(F)c(Cl)cc1Cl [Example 111, 2,4-dichloro-N-(6-chlorobenzo[d]isoxazol-3-yl)-5-fluorobenzamide]	43%	–

SMILES	inhibition at 10 µM	mGluR5 receptor inhibition of the 3[H]-MPEP binding in % (10 μM)
CCCCC(CC)C(=O)Nc1noc2cc(Cl)ccc12 (stereo not drawn) [Example 112, N-(6-chlorobenzo[d]isoxazol-3-yl)-2-ethylhexanamide]	35.1%	–
CCC(C)C(=O)Nc1noc2cc(Cl)ccc12 (stereo not drawn) [Example 113, N-(6-chlorobenzo[d]isoxazol-3-yl)-2-methylbutyramide]	49.2%	–
O=C(Nc1noc2cc(Br)ccc12)c1ccccc1Cl [Example 114, N-(6-bromobenzo[d]isoxazol-3-yl)-2-chlorobenzamide]	37.5%	–
O=C(Nc1noc2cc(Br)ccc12)c1ccc(Cl)c(Cl)c1 [Example 115, N-(6-bromobenzo[d]isoxazol-3-yl)-3,4-dichlorobenzamide]	35.8%	–
O=C(Nc1noc2cc(Br)ccc12)c1cccs1 [Example 116, thiophene-2-(6-bromobenzo[d]isoxazol-3-yl)carboxamide]	–	37.71%
CC(C)(C)CC(=O)Nc1noc2cc(Br)ccc12 [Example 117, N-(6-bromobenzo[d]isoxazol-3-yl)-3,3-dimethylbutyramide]	30.8%	–
Cc1ccc2onc(NC(=O)c3ccccc3)c2c1 [Example 118, N-(5-methylbenzo[d]isoxazol-3-yl)benzamide]	69%	–
Cc1ccc2onc(NC(=O)c3ccc(Br)cc3)c2c1 [Example 119, 4-bromo-N-(5-methylbenzo[d]isoxazol-3-yl)benzamide]	37.9%	–
Cc1ccc2onc(NC(=O)c3ccccc3Cl)c2c1 [Example 120, 2-chloro-N-(5-methylbenzo[d]isoxazol-3-yl)benzamide]	47.9%	–
Cc1ccc2onc(NC(=O)c3ccc(F)cc3)c2c1 [Example 121, 4-fluoro-N-(5-methylbenzo[d]isoxazol-3-yl)benzamide]	32.2%	–
Cc1ccc2onc(NC(=O)c3ccccc3F)c2c1 [Example 122, 2-fluoro-N-(5-methylbenzo[d]isoxazol-3-yl)benzamide]	41%	–
Cc1cccc(C(=O)Nc2noc3ccc(C)cc23)c1 [Example 123, 3-methyl-N-(5-methylbenzo[d]isoxazol-3-yl)benzamide]	–	89.70%
Cc1ccc2onc(NC(=O)c3ccc(C(C)(C)C)cc3)c2c1 [Example 124, 4-tert-butyl-N-(5-methylbenzo[d]isoxazol-3-yl)benzamide]	43.5%	–
Cc1ccc2onc(NC(=O)c3ccccc3C)c2c1 [Example 125, 2-methyl-N-(5-methylbenzo[d]isoxazol-3-yl)benzamide]	40.6%	–
Cc1ccc2onc(NC(=O)c3cccc(F)c3F)c2c1 [Example 126, 2,3-difluoro-N-(5-methylbenzo[d]isoxazol-3-yl)benzamide]	39.5%	–
Cc1ccc2onc(NC(=O)c3ccc(F)cc3F)c2c1 [Example 127, 2,4-difluoro-N-(5-methylbenzo[d]isoxazol-3-yl)benzamide]	43.2%	–
Cc1ccc2onc(NC(=O)c3cccnc3Cl)c2c1 [Example 128, 2-chloro-N-(5-methylbenzo[d]isoxazol-3-yl)nicotinamide]	33.1%	–
CC(C)(C)CC(=O)Nc1noc2ccc(F)cc12 [Example 130, N-(5-fluorobenzo[d]isoxazol-3-yl)-3,3-dimethyl butyramide]	–	31.64%
O=C(Nc1noc2ccc(F)cc12)c1ccc(F)cc1F [Example 131, 2,4-difluoro-N-(5-fluorobenzo[d]isoxazol-3-yl)benzamide]	–	42.52%
Cc1cc(C(=O)Nc2noc3ccc(F)cc23)c(C)o1 [Example 132, 2,5-dimethylfuran-3-(5-fluorobenzo[d]isoxazol-3-yl)carboxamide]	–	36.88%
O=C(Nc1noc2ccc(Br)cc12)c1cccc(F)c1F [Example 133, N-(5-bromobenzo[d]isoxazol-3-yl)-2,3-difluorobenzamide]	34.6%	–
Cc1cc(C(=O)Nc2noc3ccc(Br)cc23)c(C)o1 [Example 134, 2,5-dimethylfuran-3-(5-bromobenzo[d]isoxazol-3-yl)carboxamide]	–	43.11%
CCC(C)C(=O)Nc1noc2ccc(Br)cc12 (stereo not drawn) [Example 135, N-(5-bromobenzo[d]isoxazol-3-yl)-2-methyl butyramide]	–	40.00%
O=C(Nc1noc2ccc(Br)cc12)c1c(F)cccc1F [Example 136, N-(5-bromobenzo[d]isoxazol-3-yl)-2,6-difluorobenzamide]	40.8%	–
COc1ccc(C(=O)Nc2noc3ccc(Br)cc23)cc1OC [Example 137, N-(5-bromobenzo[d]isoxazol-3-yl)-3,4-dimethoxybenzamide]	31.2%	–

Source: patent publication US20080312301A1, “Substituted N-Benzo[D]Isoxazol-3-Yl-Amine Compounds as Inhibitors of Mglur5, Serotonin (5-Ht) and Noradrenaline Receptors, and Uses Thereof” (Gruenenthal GmbH, priority 2005, published 2008)
